# Experimental data reported in article PMC13327620, “A Deep‐Red‐Absorbing Osmium(II) Complex as a Photosensitizer for Photodynamic Therapy Inducing Immunogenic Cell Death” (Angewandte Chemie (International Ed. in English), 2026).
# Like-named read-outs stand apart in the source and are kept apart here.
# How the values were obtained:
# [1] = test system: mouse fibrosarcoma (MCA205) cells; experiment: Resazurin cell viability assay, phototoxicity; format: cell-based; settings: MCA-205, light or radiation study, 1 h, MCA205, 740 nm, 60 min, 12.60 J/cm2
# Procedure: (100 U ml−1), streptomycin (100 U ml−1), and 1% L-glutamine. The murine fibrosarcom a (MCA205) cells were cultured in RPMI 1640 medium with 10% fetal bovine serum (FBS), penicillin (100 U ml−1), streptomycin (100 U ml−1), and 1% L-glutamine. All cells were incubated at 37 °C in a humidified atmosphere with 5 % CO2.
# (§1) Normoxia. The in vitro viability of cells exposed to the complexes was determined using a resazurin assay. C ells were seeded in 96-well plates at densities of 4,000 cells/well for CT26, MC A205 and U-87 MG cells, and 8,000 cells/well for MRC-5 and NIH/3T3 cells. A fter 24 h of growth at 37 °C wit h 5% CO2, the medium was replaced with fresh medium containing various concentrations of the compounds . Following a 4- h incubation in the dark, the medium was refres hed , and the plates were exposed to irradiation usinga LUM OS -BIO photoreactor (At las Photonics).N on- ir rad iated plates were similarly refr eshed with medium and kept in the dark for the same duration. After a 40- h r ecov ery period, a f reshly pr epar ed resazurin solution (0.2 mg/mL) was added to each well, and the plates were left in the dark for 4 h before analysis on a B i o Te k Cytation 5 Cell Imaging Multimode Reader (Agil ent Technologies). […]
# MCA205 cells [2] = experiment: In vivo vaccination and rechallenge, MCA205 model; set-up: species or system C57BL/6 mice; settings: vaccination with MCA205 cells pre-treated with 500 µM Cisplatin or 1400 µM Oxaliplatin (dark), 5.5 µM Ce6 or 3 µM Os2 (740 nm)
# Source text: Next, we used these concentrations in the MCA205 vaccination and rechallenge model on C57BL/6 mice to test the in vivo ICD effect of Os2, following the same experimental procedure as that used for CT26‐luc cells in Figure 5A. […] Body weights remained stable across all groups throughout the study, further supporting the good in vivo biosafety of Os2.
# The BALB/c female mice were randomly divided into 4 groups with each group containing 5 mice, which were named as Control group, Cisplatin group, Ce6 group and Os2 group. CT26-luc cells wer e treat ed in vitro with 600 µM Cisplatin in the dark, 6.5 µM Ce6 or 1.8 µM Os2 upon 740 nm LED light irradiation (60 min, 12.6 J cm-2) following the methods described above. Subsequently, treated CT26-luc cells (3×10^5 cells in 100 µ L sterile PBS) or 100 µ L sterile PB S were injected subcutaneously into the left flank of each mouse. One week later, mice were r echalleng ed by injection with untreated CT26- luc cells (1×10^6 cells in 100 µL sterile PBS). The mice were monitored by an in vivo imaging system (Biospace Lab, Photon Imager Optima) and the tumor volume was calculated with the following equation: tumor volume = width 2 × length × […]
# In vivo vaccination study on MCA205 cells
# The C57BL/6 mice were randomly divided into 5 groups with each group containing 10 mice, whi ch w ere nam ed as Control group, Cisplatin group, Oxaliplatin group, Ce6 group and Os2 group. M CA205 cells were treated in vitro with 500 µM Cisplatin o r 1400 µM Oxaliplatin in the dark, 5.5 µM Ce6 or 3 µM Os2 upon 740 nm LED light irradiation (60 min, 12.6 J cm-2) following the methods described above. Subsequently, treated MCA205 cells (3 ×10^5 cells in 100 µ L sterile PBS) or 100 µ L sterile PBS were injected subcutaneously into the left flank of each mouse. One week later, mice were rechallenged by injection with untreated MCA205 cells (1×10^6 cells in 100 µ L sterile PBS). The tumor volume was calculated with the following equation: tumor volume =
# MCA205 cells [3] = experiment: Annexin V-FITC/propidium iodide (AV/PI) cell viability assay by flow cytometry; format: cell-based, mouse; settings: MCA205, in the dark
# Source text: Regarding the optimal dose of each drug for in vivo vaccination, we continued to follow the same standards as with CT26‐luc cells, using the concentration of each drug that results in approximately 5% of live cells as the in vivo dose. The testing method remained the same, using the AV/PI dual staining assay. Negative controls still included the untreated group (direct injection of PBS solution) and the non‐ICD inducer Cisplatin. Based on the in vitro HMGB‐1 release results, Ce6 was maintained as the positive control. For a more comprehensive comparison, we also added the platinum‐based chemotherapeutic agent Oxaliplatin as a non‐PS ICD inducer, serving as an additional positive control.
# As the drug concentration increased, the cells gradually shifted to dying (Q3, Annexin V^+/PI^−) or dead (Q2, Annexin V^+/PI^+ and Q1, Annexin V^−/PI^+) state. For MCA205 cells, the concentrations corresponding to approximately 5% cell survival for each drug were 500 µM Cisplatin and 1400 µM Oxaliplatin in the dark, 5.5 µM Ce6 and 3 µM Os2 under 740 nm LED light illumination. […]
# (§2) incubated for 24 h. Cells were then treat ed with the determined IC50 of complexes and irradiated or kept in the dark. Supernatants were collected 12 h post-t reatm ent, and the extracellular ATP content was measured with Adenosine 5′ -triphosphate (ATP) Bioluminescent Assay Kit (Sigma-Aldrich) according tomanufacturer ’s ins truction.
# Cell viability assay f o r in vivo by flow cytometry
# CT26-luc or MCA205 cells were seeded in 6-well plates at a density of 1 ×1 05 cells per well and cultured for 24 h at 37 °C with 5% CO 2. The medium was replaced by various concentrations of the compound dilutions in fresh medium.For Ce6 and Os2, after 4 h incubation in the dark, the medium w as r efr eshed and the plates wer e illuminated with a LUMOS-BIO photoreactor (Atlas Photonics), followed by an additional 20- h incubation in the dark. […]
# (§3) 556419) and PI (BD Biosciences, Catalog no.51- 66211E). CT26- luc cells were analyzed by flow cytometry (Beckm an Coulter Life Sciences, CytoFLEX LX Flow Cytometer). […]
# [4] = standard, in acetonitrile; cited from earlier work
# CT26‐luc cells = experiment: Annexin V-FITC/propidium iodide (AV/PI) cell viability assay by flow cytometry; format: cell-based, mouse; settings: in the dark, 24 h
# Procedure: Following the gold standard assessment method, the Annexin V‐FITC/propidium iodide (AV/PI) dual staining assay was conducted to screen the suitable concentrations of each drug (Figure S25). In addition, to better monitor tumor growth in vivo, luciferase‐labelled tumor cells (CT26‐luc) were used for in vivo experiments by bioluminescence imaging. […] As the concentration of each drug was increased, the proportion of live cells decreased, while the percentage of dying cells (Q3, Annexin V^+/PI^−) and dead cells (Q2, Annexin V^+/PI^+ and Q1, Annexin V^−/PI^+) increased. The concentrations at which approximately 5% of the cells remained alive (IC95) were 600 µM for Cisplatin in the dark, 1.8 µM for Os2, and 6.5 µM for Ce6 upon 740 nm LED light irradiation (60 min, 12.6 J cm^−2). These concentrations were selected for the subsequent in vivo vaccination studies. […]
# as §2, with “truction. […]” for “truction.”
# as §3
# [5] = Photophysical properties (fluorescence and singlet oxygen quantum yield, lifetime); format: physicochemical; settings: in ethanol
# Procedure: System Inc, Phoenixville, PA, USA). The excitation beam is separated by a SPEX dual […]
# network monochromator (1200 lines / mm blazed at 330 nm). The fluorescence was […]
# measured by the UV-Visible detector via the SPEX dual network emission […]
# monochromator (1200 lines / mm blazed at 500 nm). Singlet oxygen production was […]
# measured with an infrared detector InGaAs (800 - 1550 nm) via the dual network […]
# emission monochromator SPEX (600 lines / mm blazed at 1 µm).
# All spectra were measured using 4-sided quartz cells. The absorption values of the […]
# references and samples at the excitation wavelength were adjusted to 0.2. All emission […]
# spectra were normalized to the same absorbance for the purpose of comparison.
# [Ru(bpy)3]2+ in acetonitrile was chosen as standard for both fluorescence and singlet […]
# oxygen quantum yield determination. Fluorescence quantum yield of [ Ru(bpy)3]2+ i n […]
# acetonitrile is evaluated at 0.077.[5] Singlet oxygen quantum yield of [ Ru(bpy)3]2+ i n […]
# acetonitrile is evaluat ed at 0.77.[6]
# Time-resolved experiments were performed using for excitation: a pulsed laser diode […]
# emitting at 407 nm (LDH-P-C-400M, FWHM < 70 ps, 1 MHz) coupled with a driver […]
# PDL 800- D (both PicoQuant GmbH, BERLIN, Germany) and for detection: an […]
# avalanch e photodiode SPCM-AQR-15 (EG & G, VAUDREUIL, Can ada) coupled with […]
# a 650 nm long- wav e p ass filter as det ection system. The acquisition was p erformed by […]
# a PicoHarp 300 module with a 4 channels router PHR-800 (both PicoQuant GmbH, […]
# BERLIN, Germany ). Th e fluores cence decays were recorded using the single photon […]
# counting method. Data were collected up to 1000 counts accumulated in the maximum […]
# channel and analyzed using Time Correlated Single Photon Counting (TCSPC) […]
# software Fluofit (PicoQuant GmbH, BERLIN, Germany) based on iterative reconvolution using a Levensberg- M arquandt alg oritm, enabling the obtention of multi-exponential profiles (m ainly one or two exponenti als in our cases ). […]
# [6] = test system: mouse colon adenocarcinoma (CT26) cells; experiment: Resazurin cell viability assay, (photo)cytotoxicity, normoxia; format: cell-based; settings: for IC50: Mus musculus, normoxia
# Procedure: Given that most ICD studies focus on breast, non‐small cell lung carcinoma, and colon cancer, and since ICD was first discovered in mouse colon cancer cells (CT26), we initially tested our compounds on CT26 cells. Cells were incubated with nine different concentrations (mainly from 0.01 to 100 µM) of the compounds for 4 h in the dark. Then, the diluted solutions containing the compounds were replaced by fresh medium, and the cells were either illuminated or kept in the dark for 1 h more. After 2 days, IC50 values (concentration of the agent inhibiting cell growth by 50%) were determined with the resazurin assay, using chlorin e6 (Ce6) and protoporphyrin IX (PpIX) for comparison (Figure S10). The clinically approved chlorin mixture Radachlorin contains ∼80% Ce6, while 5‐aminolevulinic acid (Ameluz and Levulan) and methyl 5‐aminolevulinate (Metvix and Metvixia) serve as precursors of PpIX. Therefore, Ce6 and PpIX were used for comparison purposes.
# (100 U ml−1), streptomycin (100 U ml−1), and 1% L-glutamine. […]
# All cells were incubated at 37 °C in a humidified atmosphere with 5 % CO2.
# as §1
structure (smiles),measurement,setting,value
Cc1cc(O)c2c(=O)c3c(O)cc(O)c4c5c(O)cc(O)c6c(=O)c7c(O)cc(C)c8c1c2c(c34)c(c78)c65 [Hypericin],IC50,[1],1.66 ± 0.18 µM
O=C1[O][Pt]2([NH][C@@H]3CCCC[C@H]3[NH]2)[O]C1=O [Oxaliplatin],Tumor growth,MCA205 cells [2],partial suppression
same,Concentration corresponding to approximately 5% cell survival,MCA205 cells [3],1400 µM
[Ru+2].c1ccc(-c2ccccn2)nc1.c1ccc(-c2ccccn2)nc1.c1ccc(-c2ccccn2)nc1 [[Ru(bpy)3]2+],Fluorescence quantum yield,[4],0.077
same,Singlet oxygen quantum yield,[4],0.77
N.N.[Cl][Pt][Cl] [Cisplatin],Concentration at which approximately 5% of the cells remained alive (IC95),CT26‐luc cells,600 µM
same,Tumor growth,MCA205 cells [2],Almost no inhibition
same,Concentration corresponding to approximately 5% cell survival,MCA205 cells [3],500 µM
"C=CC1=C(C)c2cc3[nH]c(cc4nc(cc5[nH]c(cc1n2)c(C)c5CCC(=O)O)C(CCC(=O)O)=C4C)c(C)c3C=C [PpIX, protoporphyrin IX]",Fluorescence lifetime,[5],12.1 ns
same,Fluorescence quantum yield,[5],0.05
same,Singlet oxygen quantum yield,[5],0.77
same,IC50,[1],4.41 ± 0.09 µM
same,"PI (phototoxicity index, IC50 dark/IC50 light)","[6]; CT26, 620 nm",>110
same,IC50,"[6]; CT26, CT26, dark, read-out: IC50 Dark",> 100 µM
same,IC50,"[6]; CT26, light or radiation study, 1 h, CT26, 620 nm, 1.88 mW/cm^2, 60 min, read-out: IC50 620 nm (1 h, 6.75 J/cm^2)",0.91 ± 0.1 µM
